Common to all, as to type: functional, cell-based
Test [1] has as its system A549. Description: Cytotoxicity against human A549 cells after 2 days by MTT assay. Conditions: A549, 48 h.
Test [2] relates to MCF7. The test can be described thus: Cytotoxicity against human MCF7 cells after 2 days by MTT assay. The settings on record: MCF7, 48 h. For orientation: Tetrazolium dyes change colour on reduction, which living cells bring about.
A short description of test [3]: Cytotoxicity against mouse TRAMP-C1 cells after 2 days by MTT assay. The settings on record: TRAMP-C1, 48 h.
Test [4] in a line: Cytotoxicity against mouse C26 cells after 2 days by MTT assay. The settings on record: C26, 48 h.

For orientation: IC50 means the concentration at which inhibition is half-maximal. High values mean lower potency, low ones higher potency. Regarding `NCCCCNC(=O)CCC(=O)c1ccc(-c2ccccc2)cc1` [FENBUFEN BUTANAMINE], the IC50 in test [1] turned out to be 100 µM; in test [2], 87 µM.
On to `O=C(O)CCC(=O)c1ccc(-c2ccccc2)cc1` [FENBUFEN], for which the IC50 in test [1] is above 100 µM; in test [3], above 100 µM; in test [4], above 100 µM; in test [2], above 50 µM.
In the case of `CCCCC(CC)C(=O)NCCCCNC(=O)CCC(=O)c1ccc(-c2ccccc2)cc1` (stereo not given), the IC50 in test [1] turned out to be 17 µM; in test [3], 18 µM; in test [4], 13 µM; in test [2] it was 1 µM.
Turning to `C=C(CC)C(=O)c1ccc(OCC(=O)NCCCCN)c(Cl)c1Cl`, the IC50 was 18 µM in test [1] and 8 µM in test [2].
As to `Cc1ccc(C)c(OCCCC(C)(C)C(=O)NCCCCNC(=O)CCC(=O)c2ccc(-c3ccccc3)cc2)c1`, the IC50 was 9 µM in test [1], 40 µM in test [3], 10 µM in test [4] and 2 µM in test [2].
On the same counts, the results for `C=C(CC)C(=O)c1ccc(OCC(=O)NCCCCNC(=O)CCC(=O)c2ccc(-c3ccccc3)cc2)c(Cl)c1Cl` are 19 µM, 80 µM, 35 µM and 5 µM.

For the origin of these results see ChEMBL document CHEMBL1681694, “Solution-phase parallel synthesis and screening of anti-tumor activities from fenbufen and ethacrynic acid libraries” (Bioorg Med Chem Lett, 2011).
